35 molecules from patent US10308608B2, “Histone deacetylase inhibitors” (BIOMARIN PHARMACEUTICAL INC., priority 2015, dated 2019) can be followed below.

Structures can show the parent of a compound that is named as a salt.

The subject of the first experiment is Frataxin (FXN) mRNA. The experiment can be described thus: Effect of HDAC inhibitors on frataxin (FXN) mRNA expression, qRT-PCR in compound-treated iPSC derived neuronal cells. The experiment is classed as cell-based. The conditions noted are these: iPSC, 24 h, compound concentration of 0.625 μM, 24 h incubation, read-out: FXN mRNA fold induction. The gist of the method:
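iPSC-derived neuronal cells, differentiated 16 days without EGF/bFGF, treated with compound 24 h. FXN mRNA measured by one-step SYBR Green qRT-PCR; fold induction reported at 0.625 μM compound, binned A<1, 1<B<2, 2<C<3, 3<D<5, E>5.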
For orientation: Real-time PCR tracks product formation cycle by cycle.
Take `Nc1ccccc1NC(=O)c1ccc(OC2CCNCC2)cc1` [Compound 65, N-(2-aminophenyl)-4-(piperidin-4-yloxy)benzamide hydrochloride]: the fold induction at 0.625 µM was in the range of 2 to 3.
Still for that read-out and setting: the value for `CC(C)CN1CC[C@@H](Nc2ccc(C(=O)Nc3ccccc3N)cc2)C1` [Compound 104, (R)-N-(2-aminophenyl)-4-((1-isobutylpyrrolidin-3-yl)amino)benzamide trihydrochloride] was 2 to 3; that for `CC1(CN2CC[C@H](Nc3ccc(C(=O)Nc4ccccc4N)cc3)C2)CC1` [Compound 100, (S)-N-(2-aminophenyl)-4-((1-((1-methylcyclopropyl)methyl)pyrrolidin-3-yl)amino)benzamide] was 1 to 2.
Still for that read-out and setting: next, `CN1CCCC(Oc2ccc(C(=O)Nc3ccccc3N)cc2)CC1` (centres unmarked) [Compound 34, N-(2-aminophenyl)-4-((1-methylazepan-4-yl)oxy)benzamide bis(2,2,2-trifluoroacetate)]: 1 to 2; `Nc1ccccc1NC(=O)c1ccc(O[C@H]2CCNC2)cc1` [Compound 49, (S)-N-(2-aminophenyl)-4-(pyrrolidin-3-yloxy)benzamide hydrochloride]: 2 to 3.
Same read-out and setting: next, `Nc1ccccc1NC(=O)c1ccc(OC2CCCN(C3COC3)CC2)cc1` (centres unmarked) [Compound 124, N-(2-aminophenyl)-4-((1-(oxetan-3-yl)azepan-4-yl)oxy)benzamide]: 1 to 2; `Nc1ccccc1NC(=O)c1ccc(NC2CCN(CC34CC5CC(CC(C5)C3)C4)CC2)cc1` [Compound 142, 4-((1-(((3r,5r,7r)-adamantan-1-yl)methyl)piperidin-4-yl)amino)-N-(2-aminophenyl)benzamide trihydrochloride]: 2 to 3; `Nc1ccccc1NC(=O)c1ccc(N[C@H]2CCCN(CC3CCCCC3)CC2)cc1` (single isomer, unassigned) [Compound 85B]: 2 to 3.
For `Nc1ccccc1NC(=O)c1ccc(NC2CN(C3CC3)C2)cc1` [Compound 134, N-(2-aminophenyl)-4-((1-cyclopropylazetidin-3-yl)amino)benzamide trihydrochloride], the fold induction at 0.625 µM fell in the range of 1 to 2.
Still for that read-out and setting: the value for `CC(C)(O)CN1CC[C@H](Nc2ccc(C(=O)Nc3ccccc3N)cc2)C1` [Compound 97, (S)-N-(2-aminophenyl)-4-((1-(2-hydroxy-2-methylpropyl)pyrrolidin-3-yl)amino)benzamide] was 1 to 2; that for `Nc1ccccc1NC(=O)c1ccc(OC2CN(CC3CCCCC3)C2)cc1` [Compound 48, N-(2-aminophenyl)-4-((1-(cyclohexylmethyl)azetidin-3-yl)oxy)benzamide dihydrochloride] was 2 to 3; that for `Nc1ccccc1NC(=O)c1ccc(OC2CNC2)cc1` [Compound 41, N-(2-aminophenyl)-4-(azetidin-3-yloxy)benzamide hydrochloride] was 1 to 2.
On to `CC1(CN2CC[C@@H](Oc3ccc(C(=O)Nc4ccccc4N)cc3)C2)CC1` [Compound 63, (R)-N-(2-aminophenyl)-4-((1-((1-methylcyclopropyl)methyl)pyrrolidin-3-yl)oxy)benzamide dihydrochloride], for which the fold induction at 0.625 µM lay within 2 to 3.
Same read-out and setting: the value for `CC1(CN2CCC(Oc3ccc(C(=O)Nc4ccccc4N)cc3)CC2)CC1` [Compound 68, N-(2-aminophenyl)-4-((1-((1-methylcyclopropyl)methyl)piperidin-4-yl)oxy)benzamide dihydrochloride] was 1 to 2.
On the same count and under the same terms, next, `CC1(CN2CC(Nc3ccc(C(=O)Nc4ccccc4N)cc3)C2)CC1` [Compound 92, N-(2-aminophenyl)-4-((1-((1-methylcyclopropyl)methyl)azetidin-3-yl)amino)benzamide]: 2 to 3; `CC(C)CN1CCC(Oc2ccc(C(=O)Nc3ccccc3N)cc2)CC1` [Compound 67, N-(2-aminophenyl)-4-((1-isobutylpiperidin-4-yl)oxy)benzamide dihydrochloride]: 1 to 2; `Nc1ccccc1NC(=O)c1ccc(N[C@H]2CCN(CC3CCCCC3)C2)cc1` [Compound 101, (S)-N-(2-aminophenyl)-4-((1-(cyclohexylmethyl)pyrrolidin-3-yl)amino)benzamide]: 2 to 3.
Same read-out and setting: the value for `Nc1ccccc1NC(=O)c1ccc(OC2CCN(CC3CC3)CC2)cc1` [Compound 1, N-(2-aminophenyl)-4-((1-(cyclopropylmethyl)piperidin-4-yl)oxy)benzamide] was 1 to 2; that for `Nc1ccccc1NC(=O)c1ccc(O[C@@H]2CCN(CC3CCCCC3)C2)cc1` [Compound 64, (R)-N-(2-aminophenyl)-4-((1-(cyclohexylmethyl)pyrrolidin-3-yl)oxy)benzamide dihydrochloride] was 2 to 3.
Take `Nc1ccccc1NC(=O)c1ccc(N[C@H]2CCN(C3COC3)C2)cc1` [Compound 137, (S)-N-(2-aminophenyl)-4-((1-(oxetan-3-yl)pyrrolidin-3-yl)amino)benzamide]: the fold induction at 0.625 µM lay in the range of 1 to 2.
Still for that read-out and setting: next, `Nc1ccccc1NC(=O)c1ccc(N[C@H]2CCNC2)cc1` [Compound 94, (S)-N-(2-aminophenyl)-4-(pyrrolidin-3-ylamino)benzamide trihydrochloride]: 1 to 2; `CN1CC[C@H](Nc2ccc(C(=O)Nc3ccccc3N)cc2)C1` [Compound 95, (S)-N-(2-aminophenyl)-4-((1-methylpyrrolidin-3-yl)amino)benzamide]: 1 to 2; `CC(C)(O)CN1CCCC(Oc2ccc(C(=O)Nc3ccccc3N)cc2)CC1` (centres unmarked) [Compound 36, N-(2-aminophenyl)-4-((1-(2-hydroxy-2-methylpropyl)azepan-4-yl)oxy)benzamide dihydrochloride]: 1 to 2.
Still for that read-out and setting: next, `CC(C)(O)CN1CCC(Sc2ccc(C(=O)Nc3ccccc3N)cc2)CC1` [Compound 375, N-(2-aminophenyl)-4-((1-(2-hydroxy-2-methylpropyl)piperidin-4-yl)thio)benzamide]: 1 to 2; `Nc1ccccc1NC(=O)c1ccc(OC2CCN(C3CC3)CC2)cc1` [Compound 131, N-(2-aminophenyl)-4-((1-cyclopropylpiperidin-4-yl)oxy)benzamide dihydrochloride]: 1 to 2.
Still for that read-out and setting: next, `Nc1ccccc1NC(=O)c1ccc(OC2CCCN(CC3CCCCC3)CC2)cc1` (centres unmarked) [Compound 40, N-(2-aminophenyl)-4-((1-(cyclohexylmethyl)azepan-4-yl)oxy)benzamide dihydrochloride]: 3 to 5.
On to `CC1(CN2CC[C@H](Oc3ccc(C(=O)Nc4ccccc4N)cc3)C2)CC1` [Compound 55, (S)-N-(2-aminophenyl)-4-((1-((1-methylcyclopropyl)methyl)pyrrolidin-3-yl)oxy)benzamide dihydrochloride], for which the fold induction at 0.625 µM fell in the range of 2 to 3.
As to `Nc1ccccc1NC(=O)c1ccc(OC2CCN(C3COC3)CC2)cc1` [Compound 132, N-(2-aminophenyl)-4-((1-(oxetan-3-yl)piperidin-4-yl)oxy)benzamide], the fold induction at 0.625 µM lay within 1 to 2.

The same experiment, now with this note: iPSC, 24 h, read-out: FXN mRNA fold induction, compound concentration of 0.625 μM, 24 h incubation.
In the case of `CC(C)(C)CN1C2CCC1CC(Nc1ccc(C(=O)Nc3ccccc3N)cc1)C2` (centres unmarked) [Compound 119, N-(2-aminophenyl)-4-((8-neopentyl-8-azabicyclo[3.2.1]octan-3-yl)amino)benzamide], the fold induction at 0.625 µM fell in the range of 2 to 3.
On the same count and under the same terms, next, `CN(c1ccc(C(=O)Nc2ccccc2N)cc1)C1CCN(CC2CC2)CC1` [Compound 5, N-(2-aminophenyl)-4-((1-(cyclopropylmethyl)piperidin-4-yl)(methyl)amino)benzamide]: 2 to 3; `CC(C)(C)CN1C2CCC1CC(Oc1ccc(C(=O)Nc3ccccc3N)cc1)C2` (centres unmarked) [Compound 74, N-(2-aminophenyl)-4-((8-neopentyl-8-azabicyclo[3.2.1]octan-3-yl)oxy)benzamide dihydrochloride]: 1 to 2.
Regarding `CCN(c1ccc(C(=O)Nc2ccccc2N)cc1)C1CCN(CC2CC2)CC1` [Compound 26, N-(2-aminophenyl)-4-((1-(cyclopropylmethyl)piperidin-4-yl)(ethyl)amino)benzamide Trihydrochloride], the fold induction at 0.625 µM lay within 2 to 3.
As to `CC(C)CN1C2CCC1CC(Nc1ccc(C(=O)Nc3ccccc3N)cc1)C2` (centres unmarked) [Compound 117, N-(2-aminophenyl)-4-((8-isobutyl-8-azabicyclo[3.2.1]octan-3-yl)amino)benzamide], the fold induction at 0.625 µM lay within 2 to 3.
Regarding `Nc1ccccc1NC(=O)c1ccc(NC2CC3CCC(C2)N3CC2CCCCC2)cc1` (centres unmarked) [Compound 122, N-(2-aminophenyl)-4-((8-(cyclohexylmethyl)-8-azabicyclo[3.2.1]octan-3-yl)amino)benzamide], the fold induction at 0.625 µM lay in the range of 2 to 3.
Same read-out and setting: next, `CN1C2CCC1CC(Oc1ccc(C(=O)Nc3ccccc3N)cc1)C2` (centres unmarked) [Compound 71, N-(2-aminophenyl)-4-((8-methyl-8-azabicyclo[3.2.1]octan-3-yl)oxy)benzamide dihydrochloride]: 1 to 2.
